Legend:
[1] = tested on: skin papilloma formation; details: topical, cited from earlier work; for rate of survival: SENCAR mice; for skin papilloma formation: from the ninth week of promotion
[2] = tested on: skin tumor formation; details: topical application; cited from earlier work
[3] = tested on: DMBA induced mouse skin tumor development; test: chronic animal bioassay: DMBA induced mouse skin tumor development, topical treatment; type: in vivo, female Swiss albino mice; details: DMBA 200 ug/kg; Cag 240 mg/kg, NA 240 mg/kg, BA 8 mmoles/kg body wt; topical twice weekly; terminated after 30 weeks; 15 animals each group
Text: We have used female Swiss albino mice from the inbred colony of Industrial Toxicology Research Center, Lucknow, India. The treatment schedule was followed as described earlier (22). Animals were shaved on the back (2×2 cm) in the interscapular region using surgical clippers. Only the animals in the resting phase of hair growth were selected for the study. For this chronic animal bioassay, we have taken 135 animals and divided them into 9 groups, consisting of 15 animals each. Group 1 served as negative control group where animals received acetone/DMSO only. For the entire study we have used 7,12-Dimethylbenz (a) anthracene (DMBA) as a skin carcinogen. DMBA was used at the dose of 200 μg/kg body wt in 0.1 ml acetone. In group 3, animals were treated with DMBA followed by concomitant application of Calcium D-glucarate (240 mg/kg body wt in 0.1 ml of DMSO). […] In group 5, animals were treated with DMBA followed by concomitant application of Butyric acid (8 mmoles in 0.1 ml of acetone). […] In group 7, animals were treated with DMBA followed by a concomitant application of Calcium D-glucarate, Butyric acid. […] All the treatments were applied topically. […] Animals were inspected regularly for tumor incidence, baldness, acne, poor health, sickness etc. Experiment was terminated after 30 weeks.
Experimental Design (15 Animals Each Group)

[4] = tested on: mouse skin papillomas; details: at higher concentrations; cited from earlier work

Row | SMILES | Cumulative no. of tumor [3] | No. of tumo bearing animal/Initial No. of animals [3] | Onset of firs tumor [in weeks] [3] [weeks] | other results
1 | C=CCSCC=C [diallyl sulfide] |  |  |  | rate of survival [1]: significantly increased; skin papilloma formation [1]: significantly inhibited
2 | CC(C)=CCOc1ccc2ccc(=O)oc2c1 [7-Isopentenyloxucoumarin] |  |  |  | skin tumor formation [2]: suppressed
3 | Cc1c2ccccc2c(C)c2c1ccc1ccccc12 [DMBA, 7,12-Dimethylbenz (a) anthracene] | 62 | 15/15 | 15 | 100% tumorigenesis [in weeks] [3]: 28 weeks
4 | O=C([O-])[C@@H](O)[C@@H](O)[C@H](O)[C@@H](O)C(=O)[O-].[Ca+2] [DMBA + CaG, Calcium D-glucarate] | 12 | 10/15 | 18 | 
5 | CC1=C(/C=C/C(C)=C/C=C/C(C)=C/C(=O)O)C(C)(C)CCC1 [retinoic acid] |  |  |  | cytotoxicity [4]: cytotoxic
6 | C=CCSSCC=C [diallyl disulfide] |  |  |  | rate of survival [1]: significantly increased; skin papilloma formation [1]: significantly inhibited
7 | NC(=O)c1cccnc1 [DMBA + NA, Nicotinamide] | 09 | 08/15 | 21 | 100% tumorigenesis [in weeks] [3]: 0 weeks
